Measured values as given in patent US11584744B2 (UNIVERSITY OF WASHINGTON, priority 2017, dated 2023).
Converted amounts (≈) assume the structure as drawn. Read-outs that look alike come from different tables or passages of the source.

How the values were obtained:
[1] = tested on: E. faecium VRE (ATCC 51559); assay: MIC susceptibility testing; assay type: cell-based, Enterococcus faecium; details: Enterococcus faecium
Procedure, shortened: (§1)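 CLSI broth microdilution in triplicate, 5×10^5 CFU/mL final, ≤0.5% DMSO; MHB for S. aureus, CA-MHB for E. coli and E. faecium, CA-MHB plus 3% laked horse blood for S. pyogenes (5% CO2).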

[2] = target: recombinant S. aureus MetRS enzyme (Staphylococcus aureus, UniProt A0A0H2XID2); assay: Inhibition of SaMetRS, ATP depletion assay; assay type: biochemical
Sequence of recombinant S. aureus MetRS enzyme (A0A0H2XID2 2-657): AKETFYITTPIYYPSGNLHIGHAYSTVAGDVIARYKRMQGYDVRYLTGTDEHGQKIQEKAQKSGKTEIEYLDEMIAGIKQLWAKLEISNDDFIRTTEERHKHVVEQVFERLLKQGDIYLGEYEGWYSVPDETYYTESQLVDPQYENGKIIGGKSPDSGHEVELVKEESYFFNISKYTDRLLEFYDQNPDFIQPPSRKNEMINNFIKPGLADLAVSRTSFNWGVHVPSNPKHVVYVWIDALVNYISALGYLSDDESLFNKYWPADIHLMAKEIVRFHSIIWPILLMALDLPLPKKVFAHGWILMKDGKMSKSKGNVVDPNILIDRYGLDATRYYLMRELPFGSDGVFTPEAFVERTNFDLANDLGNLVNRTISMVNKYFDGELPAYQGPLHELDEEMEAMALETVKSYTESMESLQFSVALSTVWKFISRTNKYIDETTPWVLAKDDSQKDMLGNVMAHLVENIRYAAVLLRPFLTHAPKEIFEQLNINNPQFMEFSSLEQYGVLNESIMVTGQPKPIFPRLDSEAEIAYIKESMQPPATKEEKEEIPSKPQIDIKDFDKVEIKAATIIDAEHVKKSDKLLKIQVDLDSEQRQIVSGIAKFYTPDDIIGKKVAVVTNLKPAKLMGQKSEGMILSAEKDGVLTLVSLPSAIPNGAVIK
Procedure, shortened: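 N-terminal 6-His S. aureus MetRS (25 nM) was pre-incubated 15 min at room temperature with compound, 400 μg/mL E. coli tRNA and pyrophosphatase in HEPES-KOH pH 7.9, 2% DMSO. Reaction started with 150 nM ATP plus 20 μM L-methionine, ran 120 min; remaining ATP read by Kinase-Glo luminescence, IC50 by sigmoidal nonlinear regression.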

S. aureus (ATCC 29213) = assay: Macromolecular synthesis assays (radiolabeled precursor incorporation); assay type: cell-based, Staphylococcus aureus; details: 30 minute incubations
Experimental: Macromolecular synthesis assays: Methods for measuring uptake of radiolabeled precursors by S. aureus (ATCC strain 29213) were adapted from previous publications. For these assays, bacteria were grown in defined media (DM): RPMI-1640 pH 7.3±0.1 without phenol red or L-glutamine (Lonza, Basel, Switzerland) supplemented with 4 mM L-glutamine (Lonza, Basel, Switzerland), 10 mM HEPES (Lonza, Basel, Switzerland), and 1% (w/v) D-glucose (Sigma Aldrich, St. Louis, Mo.). Fresh overnight cultures grown in DM at 37° C. were diluted 1:50 in pre-warmed DM and grown at 37° C. with shaking (150 rpm) until reaching an OD600 of 0.420 correlating to ˜1*10^9 CFUs/mL in mid-log phase. Each compound was assayed in quadruplicate with an 11-point three-fold serial dilution per radioisotope. A pre-warmed 96-well V-bottom plate (Corning 3894; Corning, Corning, Mass.) containing 25 μL of 4× final concentration of test compound was inoculated with 65 μL of mid-log phase bacteria (OD600 of 0.420). Both positive and negative control wells received 25 μL untreated DM and 65 μL of inoculum at the same time. After one minute, 10 μL of radiolabeled precursor (10× final concentration in DM) was added to samples and positive control wells. Final isotope concentrations for assay of [3H]-lysine (protein), [3H]-thymidine (DNA), and [3H]-uridine (RNA) were 10 μCi/mL, 2 μCi/mL, and 2 μCi/mL respectively. […] After termination, 10 μL of 10× radiolabeled precursor was added to negative control wells. The negative control consisted of adding radiolabeled precursors after termination of the bacterial incubation in order to represent background measurement of the isotope. Plates were sealed with plate tape (Thermo Fischer Scientific, Waltham, Mass.) and shaken at 250 rpm for one hour at room temperature. Aliquots of 125 μL were transferred from the 96-well V-bottom plates to 96-well filter plates (Merck Millipore, Billerica, Mass.). To bind macromolecules, the samples were passed through the filter membrane (0.45 μM hydrophilic Durapore PVDF membrane) with a vacuum manifold, then the filter was washed with 4×200 μL 10% TCA and 1×150 μL of 95% ethanol, and dried overnight in vacuum at room temperature. 25 μL Ultima Gold scintillation fluid (Perkin Elmer, Waltham, Mass.) was added to each well and DPM was quantified using a MicroBeta^2-2450 (Perkin Elmer, Waltham, Mass.) scintillation counter. The percent incorporation was determined by subtracting each well by the average negative background and dividing by the average positive incorporation×100. Error bars represent SEM between replicates. The assay was run twice with similar results.

S. aureus = assay: Serum shift assays (MIC with and without 50% human serum); assay type: cell-based, Staphylococcus aureus; details: Staphylococcus aureus
Experimental: Serum shift assays: To assess the role of protein binding on compound susceptibility, MIC determinations were performed in triplicate in the presence and absence of 50% human serum. Serial threefold dilutions of 2× compound were generated in MHB and aliquoted onto 96 well plates with a DMSO limit of 0.5%. Bacteria were adjusted to 1*10^8 CFUs/mL in MHB, then further diluted 1:100 in MHB and 100% heat deactivated filter sterilized pooled human serum. Fifty microliters were added to each well of the corresponding plates, and the plates were incubated at 37° C. for ˜20 h. The lowest concentration causing ≥90% growth inhibition was recorded as the MIC.

E. faecium (ATCC 19434) = assay: MIC susceptibility testing; assay type: cell-based; details: Enterococcus faecium, ATCC19434; read-out: E. faecium (ATCC 19434) MIC
Procedure, shortened: as §1

[3] = tested on: S. aureus VISA (ATCC 700699); assay: MIC susceptibility testing; assay type: cell-based; details: Staphylococcus aureus; read-out: S. aureus VISA (ATCC 700699) MIC
Procedure, shortened: as §1

S. pyogenes (ATCC 19615) = assay: MIC susceptibility testing; assay type: cell-based; details: Streptococcus pyogenes, ATCC19615, 18 h, read-out: S. pyogenes (ATCC 19615) MIC
E. coli (ATCC 25922) = assay: MIC susceptibility testing; assay type: cell-based; details: Escherichia coli, ATCC25922
Procedure, shortened: as §1

[4] = tested on: S. aureus MSSA (ATCC 29213); assay: MIC susceptibility testing; assay type: cell-based, Staphylococcus aureus; details: Staphylococcus aureus, 18 h; read-out: S. aureus MSSA (ATCC 29213) MIC
[5] = Cytotoxicity testing on mammalian cells (AlamarBlue, 48 hours); assay type: cell-based; details: human
Experimental: Cytotoxicity testing on mammalian cells: Compounds were assayed for cytotoxicity against CRL-8155 (human lymphoblasts) and HepG2 cells (human hepatocellular carcinoma). Cells were exposed to serial dilutions of compounds for 48 hours and toxicity was quantified using AlamarBlue (ThermoFisher Scientific, Waltham, Mass.). Assays were performed in quadruplicate and EC50 values were calculated with non-linear regression methods using software by the Collaborative Drug Database (Burlingame, Calif. www.collaborativedrug.com)

[6] = Liver microsome stability; assay type: in vitro ADME
Experimental: Microsome stability. Liver microsome stability assays were done by contract research laboratory, Wuxi AppTec Co. (Hubei, China). Briefly, compounds at 1 μM concentration were incubated in singlet with human or CD-1 mouse liver microsomes for 6 time points (0, 5, 10, 20, 30, and 60 min). Loss of parent compound was quantified by liquid chromatography/tandem mass spectrometry.

E. faecalis (ATCC 29212) = assay: MIC susceptibility testing; assay type: cell-based; details: Enterococcus faecalis, ATCC29212; read-out: E. faecalis (ATCC 29212) MIC
[7] = tested on: S. aureus MRSA (ATCC 43300); assay: MIC susceptibility testing; assay type: cell-based; details: Staphylococcus aureus; read-out: S. aureus MRSA (ATCC 43300) MIC
Procedure, shortened: as §1

[8] = Protein binding assays, equilibrium dialysis; assay type: in vitro ADME, mouse; details: 1 μM, equilibrium dialysis 22 hours
Experimental: Protein binding assays: Compound binding to mouse plasma proteins was determined using 96-well equilibrium dialyzer plates (SDIS 9610EN, Nest Group, Inc.). Mouse plasma ([…]-SW-F, BioreclamationIVT, Westbury, N.Y.) containing compound (final concentration 1 μM) was added to a donor chamber as a 150 μL volume. The buffer solution (0.2 mM phosphate buffer, 150 μL) was added to the reciprocal acceptor chamber. Each compound was tested in triplicate. To prepare calibration solution for compound quantifications, blank wells were prepared containing only mouse plasma in a donor well and buffer solution in its acceptor well. The equilibrium dialysis was carried out by rocking the plate for 22 hours in 37° C. Once equilibrium was reached, the plasma and buffer solution from both wells were carefully removed for further analysis with liquid chromatography-tandem mass spectrometry. Plasma solution and internal standard were mixed in the presence of 80% acetonitrile. After centrifuging the solution, the supernatant was transferred to an insert. Similarly, the buffer solution from the acceptor side was prepared containing 40% acetonitrile. Calibration standards for donor and acceptor sides were prepared with compound concentrations of 50 nM, 100 nM, 250 nM, 500 nM, and 1 μM. The compound concentrations from each well were calculated from the calibration curves using Microsoft Excel. The percentage of the test compound bound was determined as follows: % Free=(Concentration buffer chamber/Concentration plasma chamber)×100% % Bound=100%−% Free

T. cruzi = T. cruzi growth inhibition; assay type: cell-based, Trypanosoma cruzi; details: read-out: (E) T. cruzi EC50
[9] = tested on: S. aureus MRSA (ATCC 33591); assay: MIC susceptibility testing; assay type: cell-based, Staphylococcus aureus; details: Staphylococcus aureus, MRSA ATCC33591; read-out: (G) MRSA (ATCC33591) MIC
Procedure, shortened: as §1

MetRS (C. parvum) = MetRS (C. parvum) (Cryptosporidium parvum, UniProt Q5CVN0); assay: MetRS (C. parvum) enzyme inhibition; assay type: biochemical; details: read-out: (C) MetRS (C. parvum) IC50
Sequence of MetRS (C. parvum) (Q5CVN0 entry or part of it): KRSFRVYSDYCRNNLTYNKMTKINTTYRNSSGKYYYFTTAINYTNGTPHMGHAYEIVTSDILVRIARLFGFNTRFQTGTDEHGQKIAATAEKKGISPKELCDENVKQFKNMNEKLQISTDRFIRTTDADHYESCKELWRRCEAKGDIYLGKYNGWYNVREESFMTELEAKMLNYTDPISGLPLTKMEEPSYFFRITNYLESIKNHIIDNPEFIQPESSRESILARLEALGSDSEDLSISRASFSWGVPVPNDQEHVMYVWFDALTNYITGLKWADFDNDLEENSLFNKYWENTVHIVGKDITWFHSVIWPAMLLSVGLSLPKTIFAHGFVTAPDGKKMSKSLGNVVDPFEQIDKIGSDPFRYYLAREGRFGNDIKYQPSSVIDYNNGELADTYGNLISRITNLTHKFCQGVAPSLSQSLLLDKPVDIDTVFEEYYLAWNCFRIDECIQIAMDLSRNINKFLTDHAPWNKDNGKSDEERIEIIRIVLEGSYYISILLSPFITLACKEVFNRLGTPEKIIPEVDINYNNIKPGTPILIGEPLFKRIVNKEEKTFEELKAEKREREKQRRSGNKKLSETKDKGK

MetRS (T. brucei) = target: T1, MetRS (T. brucei) (Trypanosoma brucei brucei, UniProt Q38C91); assay: MetRS (T. brucei) enzyme inhibition; assay type: biochemical
T1 sequence (Q38C91 1-773): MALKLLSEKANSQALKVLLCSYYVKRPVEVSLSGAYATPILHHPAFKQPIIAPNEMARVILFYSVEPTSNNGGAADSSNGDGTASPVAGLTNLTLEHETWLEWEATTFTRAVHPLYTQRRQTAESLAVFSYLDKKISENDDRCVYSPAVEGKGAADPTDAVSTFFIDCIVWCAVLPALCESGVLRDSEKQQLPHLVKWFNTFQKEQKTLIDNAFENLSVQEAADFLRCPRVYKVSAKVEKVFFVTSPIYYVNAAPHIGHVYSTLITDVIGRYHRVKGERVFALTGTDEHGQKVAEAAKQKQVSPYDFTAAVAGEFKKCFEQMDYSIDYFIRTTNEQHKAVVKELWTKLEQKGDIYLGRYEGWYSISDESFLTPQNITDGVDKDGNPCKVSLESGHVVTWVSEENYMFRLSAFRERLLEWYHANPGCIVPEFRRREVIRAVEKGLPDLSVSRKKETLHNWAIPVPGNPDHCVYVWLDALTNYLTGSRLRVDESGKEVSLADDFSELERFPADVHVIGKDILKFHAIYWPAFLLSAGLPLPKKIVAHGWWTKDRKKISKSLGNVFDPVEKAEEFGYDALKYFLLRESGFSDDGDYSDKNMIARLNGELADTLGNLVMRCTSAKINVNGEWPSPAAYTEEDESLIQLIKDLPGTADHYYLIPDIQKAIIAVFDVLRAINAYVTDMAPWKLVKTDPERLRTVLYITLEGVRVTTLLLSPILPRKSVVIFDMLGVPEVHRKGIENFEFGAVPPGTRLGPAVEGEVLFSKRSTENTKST

[10] = read-out: E. faecium VRE (ATCC 51559) MIC

SMILES: O=C(O)c1cn(C2CC2)c2cc(N3CCNCC3)c(F)cc2c1=O [CIP, ciprofloxacin]
- MIC [1, 10]: 5 mg/L (≈ 15.1 µM)
- IC50 [2]: > 10 µM
- incorporation of 3H-thymidine (DNA synthesis) (S. aureus (ATCC 29213)): selective inhibition of DNA synthesis
- MIC (S. aureus; read-out: Avg MIC ± SEM (+50% serum), 50% human serum): 0.152 ± 0.01 mg/L
- MIC (S. aureus; read-out: Avg MIC ± SEM (no serum), no serum): 0.145 ± 0.001 mg/L
- MIC (E. faecium (ATCC 19434)): 5 mg/L (≈ 15.1 µM)
- MIC [3]: > 10 mg/L
- MIC (S. pyogenes (ATCC 19615)): 0.625 mg/L (≈ 1.89 µM)
- MIC (E. coli (ATCC 25922)): 0.039 mg/L (≈ 0.118 µM)

SMILES: O=c1[nH]c(Cc2ccc(Cl)cc2Cl)cn1Cc1nc2ccc(F)nc2[nH]1 [Compound 1962, 4-(2,4-dichlorobenzyl)-1-((5-fluoro-3H-imidazo[4,5-b]pyridin-2-yl)methyl)-1,3-dihydro-2H-imidazol-2-one, reference compound]
- MIC [1, 10]: 1.25 mg/L (≈ 3.19 µM)
- IC50 ([2]; recombinant enzyme, lower limit of detection 0.025 μM, read-out: MetRS S. aureus (enzyme) IC50): < 0.025 µM
- MIC [4]: 2.5 mg/L (≈ 6.37 µM)
- CC50 at 48 h ([5]; CRL-8155 cells (human lymphoblasts), read-out: Mamm. cells (CRL8155) CC50): > 19.6 mg/L
- CC50 at 48 h ([5]; HepG2 cells (human hepatocellular carcinoma), read-out: Mamm. cells (HepG2) CC50): > 19.6 mg/L
- half-life at 1 μM ([6]; human, human liver microsomes, read-out: Microsome stability: Human T½): 25.9 min
- half-life at 1 μM ([6]; mouse liver microsomes, CD-1 mouse, read-out: Microsome stability: Mouse T½): 27 min
- MIC (E. faecium (ATCC 19434)): 1.25 mg/L (≈ 3.19 µM)
- MIC (E. faecalis (ATCC 29212)): 5 mg/L (≈ 12.7 µM)
- MIC [7]: 5 mg/L (≈ 12.7 µM)

SMILES: CCCn1c(Cc2ccc(Cl)cc2Cl)cn(Cc2nc3nc(F)ccc3[nH]2)c1=O [Compound 2069, 4-[(2,4-dichlorophenyl)methyl]-1-({5-fluoro-1H-imidazo[4,5-b]pyridin-2-yl}methyl)-3-propyl-2,3-dihydro-1H-imidazol-2-one]
- % binding to mouse plasma [8]: 99.6%
- MIC ([1]; E. faecium ATCC 51559, read-out: (I) E. faecium (ATCC 51559) MIC): > 2 mg/L
- IC50 ([2]; read-out: (B) MetRS (S. aureus) IC50): < 0.025 µM
- EC50 (T. cruzi; Trypanosoma cruzi): 0.0913 µM
- EC50 (T. cruzi): 0.176 µM
- MIC [9]: 0.445 mg/L (≈ 1.02 µM)
- IC50 (MetRS (C. parvum)): < 0.04 µM
- IC50 (MetRS (T. brucei)): < 0.04 µM
- MIC (S. aureus; 50% human serum, read-out: Avg MIC ± SEM (+50% serum)): 18.3 ± 2.2 mg/L
- MIC (S. aureus; no serum, read-out: Avg MIC ± SEM (no serum)): 0.036 ± 0.03 mg/L
